The test system of one data set is M. abscessus. Nature of the data set: MIC by broth dilution method (Middlebrook 7H9). The class given is cell-based, Mycobacteroides abscessus. To be noted: for MIC50 / MIC90: clinical M. abscessus strains of Table 1; for MIC50: read-out: MIC50; for MIC90: read-out: MIC90. For orientation: In broth dilution the organism is exposed to a series of concentrations in liquid medium.

For data set [1] the following is noted: cited from earlier work.
In the next data set the test system is M. abscessus ATCC 19977. Format: cell-based, Mycobacteroides abscessus. To be noted: drug alone at its individual MIC (T405 2 µg/mL, imipenem 8 µg/mL).
A short description of a further data set: in vivo. Further details: species or system BALB/c mice. The conditions noted are these: female, BALB/c, mouse, 25 mg/kg, T405 concentration in blood. Here is the method: All procedures involving mice were approved by the Animal Care and Use Committee of Johns Hopkins University. […] Blood was sampled from three mice per group per time point by mandibular vein puncture or cardiac puncture at the following time points: 5, 15, 30, 60, 120, and 240 min post-dose. Plasma was separated in heparin-containing tubes and frozen. […] Concentration–time data were analyzed by standard non-compartmental and compartmental techniques using WinNonlin (version 7.0; Pharsight, Mountain View, CA). A one-compartmental model was used to perform simulations to predict the plasma concentration–time profile after subcutaneous doses of 150, 300, and 450 mg/kg, alone and in combination with probenecid. A plasma free drug fraction of 2% of the total drug concentration was included in the simulations.

The mark [2] stands for this setting: Mycobacteroides abscessus, ATCC19977, reference strain ATCC 19977, read-out: MIC.
Where [3] appears, read: Mycobacteroides abscessus, clinical isolate 1N, read-out: MIC.
[4] abbreviates: Mycobacteroides abscessus, clinical isolate 2N, read-out: MIC.
Where [5] appears, read: Mycobacteroides abscessus, clinical isolate 3N, read-out: MIC.
The mark [6] stands for this setting: Mycobacteroides abscessus, clinical isolate 4N, read-out: MIC.
Where [7] appears, read: Mycobacteroides abscessus, clinical isolate 5N, read-out: MIC.
The mark [8] stands for this setting: Mycobacteroides abscessus, clinical isolate 8N, read-out: MIC.
Setting [9] is: Mycobacteroides abscessus, clinical isolate 11N, read-out: MIC.
[10] abbreviates: Mycobacteroides abscessus, clinical isolate 13N, read-out: MIC.
The mark [11] stands for this setting: Mycobacteroides abscessus, clinical isolate 14N, read-out: MIC.
[12] abbreviates: Mycobacteroides abscessus, clinical isolate 202, read-out: MIC.
[13] abbreviates: Mycobacteroides abscessus, clinical isolate 203, read-out: MIC.
The mark [14] stands for this setting: Mycobacteroides abscessus, clinical isolate 204, read-out: MIC.
Setting [15] is: Mycobacteroides abscessus, clinical isolate 214, read-out: MIC.
Where [16] appears, read: Mycobacteroides abscessus, clinical isolate 215, read-out: MIC.
Setting [17] is: Mycobacteroides abscessus, clinical isolate JH1801, read-out: MIC.
[18] abbreviates: Mycobacteroides abscessus, clinical isolate JH1802, read-out: MIC.
Setting [19] is: Mycobacteroides abscessus, clinical isolate JHH2, read-out: MIC.
Setting [20] is: Mycobacteroides abscessus, clinical isolate JHH4, read-out: MIC.
Where [21] appears, read: Mycobacteroides abscessus, clinical isolate JHH9, read-out: MIC.
Where [22] appears, read: Mycobacteroides abscessus, clinical isolate JHHKB, read-out: MIC.

SMILES strings stand for the structures. Values after ≈ are worked out from the molar mass of the structure shown. Read-outs that look alike come from different tables or passages of the source.

For `C[C@@H](O)[C@H]1C(=O)N2C(C(=O)O)=C([C@H]3CCCO3)S[C@H]12` [Faropenem], the MIC (as a rule, the lowest concentration that inhibits growth of the organism) came to 512 µg/mL (≈ 1790 µM) in the data set on M. abscessus (setting [2]); 256 µg/mL (≈ 897 µM) in the data set on M. abscessus (setting [3]); 256 µg/mL (≈ 897 µM) with M. abscessus (setting [4]); 256 µg/mL (≈ 897 µM) with M. abscessus (setting [5]); 256 µg/mL (≈ 897 µM) in the data set with M. abscessus (setting [6]); 512 µg/mL (≈ 1790 µM) with M. abscessus (setting [7]). Moreover, the minimal inhibitory concentration (MIC) was found to be 512 µg/mL (≈ 1790 µM) with M. abscessus (setting [8]); 512 µg/mL (≈ 1790 µM) in the data set with M. abscessus (setting [9]); 64 µg/mL (≈ 224 µM) in the data set on M. abscessus (setting [10]); 512 µg/mL (≈ 1790 µM) in the data set with M. abscessus (setting [11]); 512 µg/mL (≈ 1790 µM) in the data set with M. abscessus (setting [12]); 128 µg/mL (≈ 449 µM) in the data set with M. abscessus (setting [13]). Besides, the MIC in the data set with M. abscessus (setting [14]) was 512 µg/mL (≈ 1790 µM); in the data set on M. abscessus (setting [15]), 128 µg/mL (≈ 449 µM); with M. abscessus (setting [16]) it was 512 µg/mL (≈ 1790 µM); with M. abscessus (setting [17]), 512 µg/mL (≈ 1790 µM); in the data set with M. abscessus (setting [18]) it was 256 µg/mL (≈ 897 µM); in the data set on M. abscessus (setting [19]), 512 µg/mL (≈ 1790 µM). In addition, the MIC in the data set with M. abscessus (setting [20]), in the data set with M. abscessus (setting [21]) and in the data set on M. abscessus (setting [22]) was 512 µg/mL (≈ 1790 µM) each time. Further, the MIC50 (as a rule, the lowest concentration that inhibits either 50% of growth or 50% of the strains tested, depending on the study) in the data set on M. abscessus (Mycobacteroides abscessus) is 512 µg/mL (≈ 1790 µM). The MIC90 (as a rule, the lowest concentration that inhibits either 90% of growth or 90% of the strains tested, depending on the study) with M. abscessus (Mycobacteroides abscessus) is 512 µg/mL (≈ 1790 µM). In addition, the half-life in mice in data set [1] is 11.4 min.
Regarding `C[C@@H](O)[C@H]1C(=O)N2C(C(=O)O)=C(SCCN=CN)C[C@H]12` [Imipenem], the minimal inhibitory concentration (MIC) in the data set on M. abscessus (setting [2]) was 8 µg/mL (≈ 26.7 µM); with M. abscessus (setting [3]) it was 8 µg/mL (≈ 26.7 µM); in the data set with M. abscessus (setting [4]), 8 µg/mL (≈ 26.7 µM); in the data set on M. abscessus (setting [5]), 8 µg/mL (≈ 26.7 µM); in the data set with M. abscessus (setting [6]), 16 µg/mL (≈ 53.4 µM); in the data set with M. abscessus (setting [7]), 16 µg/mL (≈ 53.4 µM). Moreover, the minimal inhibitory concentration (MIC) with M. abscessus (setting [8]) amounted to 32 µg/mL (≈ 107 µM); in the data set on M. abscessus (setting [9]), 32 µg/mL (≈ 107 µM); in the data set with M. abscessus (setting [10]) it was 8 µg/mL (≈ 26.7 µM); in the data set with M. abscessus (setting [11]), 32 µg/mL (≈ 107 µM); in the data set on M. abscessus (setting [12]), 16 µg/mL (≈ 53.4 µM); in the data set on M. abscessus (setting [13]), 32 µg/mL (≈ 107 µM). For the same molecule, the MIC in the data set on M. abscessus (setting [14]) was 32 µg/mL (≈ 107 µM); with M. abscessus (setting [15]), 8 µg/mL (≈ 26.7 µM); with M. abscessus (setting [16]), 16 µg/mL (≈ 53.4 µM); with M. abscessus (setting [17]) it was 16 µg/mL (≈ 53.4 µM); with M. abscessus (setting [18]), 16 µg/mL (≈ 53.4 µM); in the data set with M. abscessus (setting [19]), 32 µg/mL (≈ 107 µM). Further, the results for the minimum inhibitory concentration (MIC) in the data set on M. abscessus (setting [20]), with M. abscessus (setting [21]) and with M. abscessus (setting [22]) were 16 µg/mL (≈ 53.4 µM), 16 µg/mL (≈ 53.4 µM) and 256 µg/mL (≈ 855 µM), respectively. Moreover, the MIC50 with M. abscessus (Mycobacteroides abscessus) was 16 µg/mL (≈ 53.4 µM). Moreover, the MIC90 in the data set with M. abscessus (Mycobacteroides abscessus) came out at 32 µg/mL (≈ 107 µM). For the same molecule, the Resistance frequency with M. abscessus ATCC 19977 is 1.9 × 10^−7.
In the case of `C[C@@H](O)[C@@H]1C(=O)N2C(C(=O)O)=C(SC3CN(C4=NCCS4)C3)S[C@@H]12` [T405], in the data set “in vivo”, the concentration at 5 min was determined as 169 ng/mL, the concentration at 0.25 h came out at 157 ng/mL, the concentration at 0.5 h worked out at 143 ng/mL and the concentration at 1 h amounted to 65 ng/mL. Further, the concentration at 2 h in “in vivo” amounted to 25.1 ng/mL.
In turn, `NC(=O)[C@@H]1CC[C@@H]2CN1C(=O)N2OS(=O)(=O)O` [avibactam] registered an MIC in the data set with M. abscessus (reference strain ATCC 19977) of 256 µg/mL (≈ 965 µM).
